Measurements as given in publication PMC4032195 (ACS Chemical Biology, 2014).
Each block holds one compound with its values, some of them ahead of it.

Legend:
BRDT-1 = BRDT-1 (Homo sapiens, UniProt Q58F21); test: biochemical; assay type: binding; settings: IC50 (μM) BRDT-1, Alpha Screen, KAc-histone H4 peptide (K5/8/12/16Ac)
BRD4-1 = BRD4-1 (Homo sapiens, UniProt O60885); test: biochemical; assay type: binding; settings: IC50 (μM) BRD4-1, Alpha Screen, KAc-histone H4 peptide (K5/8/12/16Ac)
BET bromodomains = settings: cited from earlier work
VEGFR-1 = settings: read-out: IC50 VEGFR-1; cited from earlier work
VEGFR-2 = settings: read-out: IC50 VEGFR-2; cited from earlier work

IC50 (BRDT-1): > 20 µM
IC50 (BRD4-1): > 20 µM
SMILES: COc1cc(Nc2ncc(F)c(Nc3ccc4c(n3)N(COP(=O)(O)O)C(=O)C(C)(C)O4)n2)cc(OC)c1OC [Fostamatinib]

IC50 (BRDT-1): 7.6 µM
SMILES: COc1cc(Nc2nccc(Nc3ccc4c(C)n[nH]c4c3)n2)cc(OC)c1OC [GW612286X]

SMILES: O=c1cc(N2CCOCC2)oc2c(-c3ccccc3)cccc12 [LY294002]
inhibition of BET bromodomains (BET bromodomains): modest inhibitor of BET bromodomains

SMILES: Cc1ccc(Nc2nccc(N(C)c3ccc4c(C)n(C)nc4c3)n2)cc1S(N)(=O)=O [Pazopanib]
IC50 (VEGFR-1): 10 nM
